Patent US9399645B2, “Inhibitors of HIV replication” (Boehringer Ingelheim International GmbH, priority 2011, dated 2016)
pEC50: −log10 of the molar value.

Columns and labels:
[1] = Caco-2 Permeability Assay; type: in vitro ADME; conditions: human, apparent permeability A to B, compound at 10 μM, apical buffer pH 6.0, basolateral buffer pH 7.4, read-out: Papp (cm/sec, *10^−6)
Source text: Caco-2 Permeability Assay Caco-2 cells are purchased from Cell Culture Services as frozen instant cells at a concentration of 1*10^7 cells/vial. DMEM+glutamax-I culture media is purchased from Gibco (10569). Fetal bovine serum (FBS) is purchased from HyClone (SH30396.03). Pennicilin/Streptomycin antibiotics are purchased from Gibco (15140). MEM non-essential amino acids are purchased from Gibco (11140). Hank's balanced salt solution (HBSS) is purchased from Gibco (14025). Bovine serum albumin (BSA) is purchased from Sigma-Aldrich (A7906). MES low moisture is purchased from Sigma-Aldrich (M3671). HEPES is purchased from Sigma-Aldrich (H3375). Dimethyl Sulfoxide (DMSO) is purchased from EMD (MX1457-6). Complete DMEM media is prepared by adding 1 L of FBS, 100 mL of pen/strep and 110 mL of MEM non essential amino acids to 10 L of DMEM+glutamax-I. […] Caco-2 cells are seeded on HTS transwell 24-well plates purchased from Corning (3397). These polycarbonate membrane plates have a diameter of […] and pore size of 0.4 μm. The Caco-2 cells vial is thawed in a 37° C. water bath until only a small ice pellet is left. The vial is then transferred to the laminar flow hood and its exterior is extensively washed with 70% ethanol. The total content of the vial (2 mL) is transferred into a 50 mL tube containing 38 mL of complete DMEM. […] The seeding is done by the Hamilton star robotic station which is controlled with the Venus program. Each well will receive 600 μL of complete DMEM on its basolateral side and 200 μL of cells on its apical side. Each well receives 50 000 cells. The 24-well plates are then returned to an automated Liconic STX110 incubator set at 37° C., 5% CO2 and 100% humidity. The culture media for the cells is changed every two days except on weekends. These cells are maintained for a period of two weeks prior to the running of the permeability assay. Permeability assays are usually performed between day 15 and 18 after the initial seeding. […] Controls for the assay are mannitol for tight junction determination and Digoxin for efflux transporter (p-glycoprotein) expression. On the day of the assay, each compound is diluted to 10 μM in the buffer (apical for A to B). 6 μl of the 5 mM DMSO stock is added to 3 mL of the buffer in a 24-well 10 mL deep plate covered with a lid. The plate containing all the diluted compounds is spun for 10 min at 3000 rpm in a Rotanta 46 RSC centrifuge from Hettich to remove unsoluble compound. This dilution is used to add at the start of the incubation. Each compound is tested in duplicate. On the day of the assay, the culture media of the 24-well plate is removed and replaced with warm HBSS. The HBSS is then also removed and the Apical and Basolatral buffer are added to their respective side of the transwells. These steps are performed by the Hamilton Star robotic station. The plate is then placed in a 37° C. incubator and is left to equilibrate for 30 min. After 30 min of incubation a background sample (25 μL from each well) is taken from the receiver side (Basolateral for A to B), and replenished with warm buffer. These samples and all others afterwards are kept in a 96-well 1 mL plate. To start the assay, the donor compartment (apical for A to B) is emptied and replaced with new buffer containing the compound at 10 μM. Once the compounds are added, the plate is returned to the 37° C. incubator and the timer is started. In order to determine how much compound is actually added to each well, a 50 μL sample is taken from each compound dilution, this sample is refered to as the load. These steps and the following are performed by the Tecan Freedom EVO robotic station controlled via the Gemini software. For A-to-B Assay: Samples (190 μL) are taken from each basolateral (receiver) chamber at time points 0, 60, 120 and 180 min or at time points 0, 30, 60 and 90 min. From the 190 μL taken, 50 μL is transferred to the receiving plate and 140 μL is discarded.

HIV-1 = assay: C8166 HIV-1 Luciferase Assay (EC50); type: cell-based; conditions: Human immunodeficiency virus 1, C8166, 72 h
Method: C8166 HIV-1 Luciferase Assay (Ec50)
The assay used to measure inhibition of HIV replication is as described in WO 2004/050643, pages 73-75, incorporated herein by reference, with the following modifications:
Serial dilutions of HIV-1 inhibitors are prepared in complete media from DMSO stock solutions. Eleven serial dilutions of desired concentration are prepared in a 1 mL deep well titer plate (96 wells). The 12th well contains complete media with no inhibitor and serves as the positive control. All samples contain the same concentration of DMSO (<0.1% DMSO). Inhibitor is added, to triplicate wells, of a 96 well tissue culture treated clear view black microtiter plate (Corning Costar catalogue #3904). The total volume per well is 200 μL of media containing the cells and inhibitor. The last row is reserved for uninfected C8166 LTRIuc cells to serve as the background blank control and the first row is media alone.
Count C8166 LTRIuc cells and place in a minimal volume of complete RPMI 1640 in a tissue culture flask (ex. 30×10^6 cells in 10 mL media/25 cm^2 flask). Infect cells with HIV-1 at a moi of 0.005. Incubate cells for 1.5 h at 37° C. on a rotating rack in a 5% CO2 incubator. Resuspend cells in complete RPMI to give a final concentration of 25,000-cells/well. Add cells to wells of 96 well microtiter plate containing inhibitors. Add 25,000 uninfected C8166-LTRIuc cells/well in 200 μL complete RPMI to last row for background control. Incubate cells at 37° C. in 5% CO2 incubator for 3 days.
50 μL Steady Glo (luciferase substrate T112=5 hours Promega catalogue # E2520) is added to each well of the 96 well plate. The relative light units (RLU) of luciferase are determined using a luminescence plate reader. The calculated % inhibition values are used to determine EC50, slope factor (n) and maximum inhibition (Imax).

SMILES	Papp A→B at 10 μM [1]	pEC50 (HIV-1)
CC[C@H]1C[C@@H](n2c(=O)nc(-c3cnn(C)c3)c3oc4ccc(-c5cn(C)cn5)cc4c32)CCO1 [Compound 1091]	7.9 ×10⁻⁶ cm/s	7.81
CC[C@H]1C[C@@H](n2c(=O)nc(-c3cnn(C)c3)c3oc4cc(C#N)c(-c5cn(C)cn5)cc4c32)CCO1 [Compound 1094]	8.3 ×10⁻⁶ cm/s	8.04
CC[C@H]1C[C@@H](n2c(=O)nc(-c3cnn(C)c3)c3oc4ccc(-c5cn(C)cn5)nc4c32)C[C@@H](C)O1 [Compound 1095]	39.8 ×10⁻⁶ cm/s	8.07
CC[C@H]1C[C@@H](n2c(=O)nc(-c3cnn(C)c3)c3oc4c(F)cc(-c5cn(C)cn5)cc4c32)CCO1 [Compound 1097]	37.1 ×10⁻⁶ cm/s	8.41
CC[C@H]1C[C@@H](n2c(=O)nc(-c3cnn(C)c3)c3oc4c(C#N)cc(-c5cn(C)cn5)cc4c32)CCO1 [Compound 1098]	5.3 ×10⁻⁶ cm/s	8.00
CC[C@H]1C[C@@H](n2c(=O)nc(-c3ccc(OC)nc3)c3oc4ccc(-c5cn(C)cn5)nc4c32)CCO1 [Compound 1100]	29.3 ×10⁻⁶ cm/s	8.21
CC[C@H]1C[C@@H](n2c(=O)nc(-c3ccc(OC)cn3)c3oc4ccc(-c5cn(C)cn5)nc4c32)CCO1 [Compound 1101]	32 ×10⁻⁶ cm/s	7.77
CC[C@H]1C[C@@H](n2c(=O)nc(-c3ccccn3)c3oc4ccc(-c5cn(C)cn5)nc4c32)CCO1 [Compound 1102]	24.6 ×10⁻⁶ cm/s	7.24
CC[C@H]1C[C@@H](n2c(=O)nc(-c3cnn(C)c3)c3oc4cnc(-c5cn(C)cn5)cc4c32)C[C@@H](C)O1 [Compound 1103]	18.5 ×10⁻⁶ cm/s	7.25
